Common to all, as to format: cell-based
In experiment [1] the test system is NIH3T3 cells transformed by ras gene. The experiment can be described thus: Detransformation of Cells Transformed by Ras Gene. Conditions: Mus musculus, 24 hours, 2-fold serial dilutions, morphological observation, read-out: MTC: Minimum Concentration Required for the Detransformation of Cells Transformed by Ras Gene. The protocol: Medium used: 9.5 g of Dulbecco's Eagle MEM medium (Nissui Seiyaku) solution, 20 ml of 7% sodium hydrogen carbonate solution are added to distilled water and a fetal bovine serum (Flow Laboratories, Inc.) was added to a final concentration of 10 v/v % to obtain the medium. The medium (100 μl) was added to a 96-well plate (Sumitomo Bakelite) and NIH3T3 cells transformed by ras gene (5×10^3 cells/well) were seeded. The plate was incubated for 24 hr in a 5% carbon dioxide gas incubator. Then a sample to be tested was added in such a manner as to give 2-fold serial dilutions. After 24 hours, cells were observed morphologically to evaluate the detransformation activity.
Minimum Concentration Required for the Detransformation of Cells Transformed by Ras Gene

The test system of experiment [2] is Cell Adhesion of Leukocytes onto Vascular Endothelial Cells of Human Umbilical Vein. The experiment can be described thus: Assay of Inhibition Activity Against Cell Adhesion of Leukocytes (HL60 cells) onto Vascular Endothelial Cells of Human Umbilical Vein. The settings on record: 16-hour incubation with sample, then TNF 4 hr, HL-60 cells 30 min, Rose Bengal OD570. The protocol:
Assay of Inhibition Activity Against Cell Adhesion of Leukocytes onto Vascular Endothelial Cells of Human Umbilical Vein
Human vascular endothelial cells used had been obtained from human umbilical vein by perfusion method using an enzyme solution of collagenase and have been maintained by subculturing in a culture solution, i.e., M199 medium (Gibco, Inc.) supplemented with 20% fetal bovine serum (FBS; Gibco, Inc.), 100 μg/ml endothelial mitogen (Funakoshi), 90 μg/ml heparin, 50 IU/ml Penicillin and 50 μg/ml Streptomycin. HL60 cells (human myelocytic leukemia cells) were purchased from Flow, Inc. and have been maintained by subculturing in RPMI1640 medium containing 10% FBS.
Four hours later, to each well was added 4 μl of a medium containing a sample at various concentrations. […] After 16-hour-incubation, 4 μl of 1×10^4 μ/ml TNF solution (tumor necrosis factor dissolved in a medium solution) was added and the incubation was continued for 4 hr. The resultant medium solution containing the sample was then filtered with suction and washed (×3) with DMEM solution containing 10% FBS, which was followed by the addition of 200 μl suspension of 3×10^5 HL-60 cells suspended in DMEM containing 10% FBS. The incubation was carried out at 37° C. for 30 min. […] After being allowed to stand for 5 min at room temperature, the supernatant was removed by aspiration, which was followed by washing (×2) with DMEM solution containing 10% FBS. A mixture of ethanol/phosphate-buffered physiological saline (1:1) was added and the resultant mixture was allowed to stand for 30 min to solubilize Rose Bengal pigment, which was followed by the determination of OD570 value on spectrophotometer.

For experiment [3], the system named is Vascular Endothelial Cells of Human Umbilical Vein. Briefly: Assay of Inhibition Against the Cell Growth of Vascular Endothelial Cells of Human Umbilical Vein (MTT method). Conditions: 72 h, 3-day incubation, OD570. The protocol:
Assay of Inhibition Against the Cell Growth of Vascular Endothelial Cells of Human Umbilical Vein
Human vascular endothelial cells used had been obtained from human umbilical vein by perfusion method using an enzyme solution of collagenase and have been maintained by subculturing in a culture solution, i.e., M199 medium (Gibco, Inc.) supplemented with 20% fetal bovine serum (FBS; Gibco, Inc.), 100 μg/ml endothelial mitogen (Funakoshi), 90 μg/ml heparin, 50 IU/ml Penicillin and 50 μg/ml Streptomycin. […] On the next day, to each well was added 10 μl of a medium containing a sample at various concentrations. […] After 3-day-incubation, to the mixture was added 50 μl of 3 mg/ml MTT solution (a solution of 3-(4,5-dimethyl-2-thiazolyl)-2,5-diphenyl-2H-tetrazolium bromide dissolved in a culture solution) and the incubation was continued for 4 hr. Cells and MTT pigment were solubilized by the addition of 50 μl of 20% SDS solution (sodium dodecylsulfate dissolved in 0.02N HCl) and the incubation continued for 1 hr, which was followed by the determination of OD570 value on spectrophotometer.
(Tetrazolium assays rely on reduction of a dye to a coloured formazan, in cell work by metabolically active cells.)

On to `O=C(/C=C/C=C/c1ccccc1NS(=O)(=O)c1ccccc1)NO` [Compound I-4, (2E)(4E)-5-(2-Phenylsulfonylaminophenyl)pentadienohydroxamic Acid], for which, in experiment [1], the minimal effective concentration was found to be 1.6 µM.

In the case of `CN(c1ccccc1/C=C/C=C/C(=O)NO)S(=O)(=O)c1ccccc1` [Compound I-7, (2E)(4E) -5-[2-(N-Methylphenylsulfonylamino)phenyl]-2,4-pentadienohydroxamic Acid], in experiment [2], the IC50 (in general, the concentration that inhibits the measured activity by half) was 4.5 µM. In experiment [1], the minimal effective concentration came to 0.2 µM.

For `O=C(/C=C/C=C/C=C/c1ccccc1NS(=O)(=O)c1ccccc1)NO` [Compound I-9, (2E)(4E)(6E)-7-(2-Phenylsulfonylaminophenyl)-heptatrienohydroxamic Acid], the IC50 in experiment [3] worked out at 25.6 µM; in experiment [2], 6.5 µM. In experiment [1], the minimal effective concentration was 3.2 µM.

In the case of `O=C(/C=C/C=C/c1cccc(NS(=O)(=O)c2ccccc2)c1)NO` [Compound I-10, (2E)(4E)-5-(3-Phenylsulfonylaminophenyl)pentadienohydroxamic Acid], the IC50 in experiment [3] is 20.4 µM; in experiment [2] it was 5.3 µM. In addition, the minimal effective concentration in experiment [1] was determined as 0.3 µM.

For the compound `CN(c1cccc(/C=C/C=C/C(=O)NO)c1)S(=O)(=O)c1ccccc1` [Compound I-11], it took 6.4 µM to reach half-maximal inhibition in experiment [2] (IC50). Also, the minimal effective concentration in experiment [1] came to 0.6 µM.

Consider `O=C(/C=C/C=C/c1ccc(NS(=O)(=O)c2ccccc2)cc1)NO` [Compound I-12, (2E)(4E)-5-(4-Phenylsulfonylaminophenyl)pentadienohydroxamic Acid], for which the minimal effective concentration in experiment [1] worked out at 3.1 µM.

The compound `O=C(/C=C/C=C/c1cc2ccccc2n1S(=O)(=O)c1ccccc1)NO` [Compound I-17, (2E)(4E)-5-(1-phenylsulfonylindol-2-yl)pentadienohydroxamic Acid] came in with an IC50 in experiment [2] of 8.3 µM. In addition, in experiment [1], the minimal effective concentration was 3.2 µM.

Regarding `O=C(/C=C/C#Cc1cccc(NS(=O)(=O)c2ccccc2)c1)NO` [Compound I-18, (2E)-5-[3-(Phenylsulfonylamino)phenyl]pent-2-en-4-ynohydroxamic Acid], the figures for the IC50 in experiment [3] and in experiment [2] were 13.8 µM and 2.5 µM, respectively. The minimal effective concentration in experiment [1] is 0.039 µM.

`CN(c1cccc(C#C/C=C/C(=O)NO)c1)S(=O)(=O)c1ccccc1` [Compound I-19, (2E)-5-[3-(N-Methylphenylsulfonylamino)phenyl]pent-2-en-4-ynohydroxamic Acid]: the IC50 in experiment [3] was found to be 26.7 µM; in experiment [2], 6.3 µM. Moreover, in experiment [1], the minimal effective concentration amounted to 0.3 µM.

Consider `O=C(/C=C/C=C/c1cc2ccccc2cc1NS(=O)(=O)c1ccccc1)NO` [Compound I-20, (2E)(4E)-5-(3'-Phenylsulfonylamino-2'-naphthyl)pentadienohydroxamic Acid], for which the minimal effective concentration in experiment [1] amounted to 0.6 µM.

Values taken from patent US5534654A, “Aromatic-sulfonamide-type hydroxamic acid derivative” (Shionogi & Co., Ltd., priority 1991, dated 1996).
